In patent US6566365B1, “Method for the treatment of Flaviviridea viral infection using nucleoside analogues” (BioChem Pharma Inc., priority 1999, dated 2003):

What was measured:
[1] = target: T1, HCV RNA-dependent RNA polymerase (NS5B protein) (Hepatitis C virus genotype 1b, UniProt P26663); experiment: In vitro HCV RNA-dependent RNA polymerase assay, triphosphate form of guanosine analogues (polyC/oligoG or heteropolymeric RNA template, [32P]-GTP incorporation); assay type: biochemical, HCV-Bk strain; conditions: purified recombinant NS5B; for inhibition at 50 µM: @50 μM compound
T1 construct: The cDNA encoding the entire NS5B protein of HCV-Bk strain, genotype 1b; added initiator Met (ATG introduced before the NS5B coding region) (N); made in house; host or cells: Sf9 insect cells, recombinant baculovirus BacNS5B (pBlueBacII)
T1 sequence (P26663 2420-3010): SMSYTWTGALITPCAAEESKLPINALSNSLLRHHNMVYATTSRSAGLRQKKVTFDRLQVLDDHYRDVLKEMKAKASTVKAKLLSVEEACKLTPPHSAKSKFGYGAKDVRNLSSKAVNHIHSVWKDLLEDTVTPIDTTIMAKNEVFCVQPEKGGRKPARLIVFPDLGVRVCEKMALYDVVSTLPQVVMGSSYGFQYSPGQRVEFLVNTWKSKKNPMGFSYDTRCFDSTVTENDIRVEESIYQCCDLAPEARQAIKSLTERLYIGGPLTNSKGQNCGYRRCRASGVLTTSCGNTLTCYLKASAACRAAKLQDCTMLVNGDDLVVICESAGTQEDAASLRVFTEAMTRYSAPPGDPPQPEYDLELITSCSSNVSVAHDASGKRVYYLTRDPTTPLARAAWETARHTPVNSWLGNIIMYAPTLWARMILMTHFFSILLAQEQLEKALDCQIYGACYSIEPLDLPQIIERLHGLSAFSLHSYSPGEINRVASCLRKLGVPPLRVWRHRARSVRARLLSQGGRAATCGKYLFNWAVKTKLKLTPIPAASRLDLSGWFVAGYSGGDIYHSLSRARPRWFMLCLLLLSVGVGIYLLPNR
Protocol: (§1) Compounds were evaluated using an in vitro polymerase assay containing purified recombinant HCV RNA-dependent RNA polymerase (NS5B protein). HCV NS5B was expressed in insect cells using a recombinant baculovirus as vector. The experimental procedures used for the cloning, expression and purification of the HCV NS5B protein are described bellow. Follows, are details of the RNA-dependent RNA polymerase assays used to test the compounds.
(§2) The cDNA encoding the entire NS5B protein of HCV-Bk strain, genotype 1b, was amplified by PCR using a plasmid containing a cDNA version of the full-length HCV genome as template. The oligonucleotides used to amplify this HCV region were designed to introduce a NheI site followed by an ATG at the 5′ end of the NS5B coding region as well as a BamHI site at the 3′end immediately downstream of the translation stop codon. The amplified sequence, of 1.8 kb, was digested with NheI and BamHI and ligated to a predigested pBlueBacII plasmid (Invitrogen). The resulting recombinant plasmid was designated pBac/NS5B. Sf9 cells were co-transfected with 3 μg of pBac/NS5B, together with 1 μg of linearized baculovirus DNA (Invitrogen), as described in the manufacturer's protocol. Following two rounds of plaque purification, an NS5B-recombinant baculovirus, BacNS5B, was isolated. The presence of the recombinant NS5B protein was determined by western blot analysis (Harlow and Lane, 1988) of BacNS5B-infected Sf9 cells, using a HCV NS5B specific rabbit polyclonal antiserum (anti-NS5B). Infections of Sf9 cells with this plaque purified virus were performed in one-liter spinner flasks at a cell density of 1.2×10^6 cells/ml and a multiplicity of infection of 5.
(§3) Sf9 cells were infected as described above. Sixty hours post-infection, cells were harvested then washed twice with phosphate buffer saline (PBS). Total proteins were solubilized as described in Lohmann et al. (1997) with some modifications. In brief, proteins were extracted in three steps, S1, S2, S3, using lysis buffers (LB) I, LB II and LB III (Lohmann et al, 1997). The composition of LBII was modified to contain 0.1% triton X-100 and 150 mM NaCl to reduce the amount of solubilized NS5B protein at this step. In addition, sonication of cell extracts was avoided throughout the protocol to preserve the integrity of the protein structure.
Soluble NS5B protein in the S3 fraction was diluted to lower the NaCl concentration to 300 mM, then it incubated batchwise with DEAE sepharose beads (Amersham-Pharmacia) for 2 hrs at 4° C., as described by Behrens et al. (1996). Unbound material was cleared by centrifugation for 15 min at 4° C., at 25000 rpm using a SW41 rotor (Beckman). […] Eluted fractions were analyzed by SDS-PAGE and western blotting. […]

[2] = target: T1, HCV RNA-dependent RNA polymerase (NS5B protein); experiment: In vitro HCV RNA-dependent RNA polymerase assay, triphosphate form of cytosine analogues (polyrI/oligodC or heteropolymeric RNA template, [32P]-CTP incorporation); assay type: biochemical, HCV-Bk strain; conditions: purified recombinant NS5B; for inhibition at 50 µM: @50 μM compound; for inhibition at 100 µM: @100 μM compound
Protocol: as §1, §2, §3
Soluble NS5B protein in the S3 fraction was diluted to lower the NaCl concentration to 300 mM, then it incubated batchwise with DEAE sepharose beads (Amersham-Pharmacia) for 2 hrs at 4° C., as described by Behrens et al. (1996). Unbound material was cleared by centrifugation for 15 min at 4° C., at 25000 rpm using a SW41 rotor (Beckman). The supernatant was further diluted to lower the NaCl concentration to 200 mM and subsequently loaded, with a flow rate of 1 ml/min, on a 5 ml HiTrap® heparin column (Amersham-Pharmacia) connected to an FPLC® system (Amersham-Pharmacia). Bound proteins were eluted in 1 ml fractions, using a continuous NaCl gradient of 0.2 to 1 M, over a 25 ml volume. NS5B-containing fractions were identified by sodium dodecyl sulfate polyacrylamide gel electrophoresis (SDS-PAGE), followed by western blotting using the anti-NS5B antiserum at a dilution of 1:2000. Positive fractions were pooled and the elution buffer was exchanged against a 50 mM NaPO4 pH 7.0, 20% glycerol, 0.5% triton X-100 and 10 mM DTT, using a PD-10 column (Amersham-Pharmacia). The sample was then loaded onto a 1 ml HiTrap® SP column (Amersham-Pharmacia), with a flow rate of 0.1 ml/min. Bound proteins were eluted using a continuous 0 to 1 M NaCl gradient over a 15 ml volume. Eluted fractions were analyzed by SDS-PAGE and western blotting. Alternatively, proteins were visualized, following SDS-PAGE, by silver staining using the Silver Stain Plus kit (BioRad) as described by the manufacturer.
RdRp assays were conducted using either homopolymeric template/primers or in vitro transcribed RNA templates. […]

SMILES: Nc1nc2c(ncn2[C@H]2CO[C@@H](COP(=O)(O)OP(=O)(O)OP(=O)(O)O)O2)c(=O)[nH]1 (single isomer, unassigned) [13(-) triphosphate, (−)-triphosphate-cis-2-hydroxymethyl-4-(guanin-9′-yl)-1,3-dioxolane]
- inhibition at 50 µM [1]: 82%
- IC50 [1]: 10 µM

SMILES: Nc1ccn([C@H]2CO[C@@H](COP(=O)(O)OP(=O)(O)OP(=O)(O)O)O2)c(=O)n1 (single isomer, unassigned) [COMPOUND#22(+), (+)-triphosphate-cis-2-hydroxymethyl-4-(cytosin-1′-yl)-1,3-dioxolane]
- inhibition at 50 µM [2]: 85%
- IC50 [2]: 7.7 µM

SMILES: Nc1nc(=O)n([C@@H]2CO[C@H](COP(=O)(O)OP(=O)(O)OP(=O)(O)O)O2)cc1F (single isomer, unassigned) [COMPOUND#23(−), (−)-triphosphate-cis-2-hydroxymethyl-4-(5′-fluorocytosin-1′-yl)-1,3-dioxolane]
- inhibition at 100 µM [2]: 81%
- IC50 [2]: 16 µM

SMILES: Nc1nc(NC2CC2)c2ncn([C@H]3CO[C@@H](COP(=O)(O)OP(=O)(O)OP(=O)(O)O)O3)c2n1 [9(-)-triphosphate, (−)-triphosphate-cis-2-hydroxymethyl-4-(2′-amino-6′-cyclopropylamino-purine-9′-yl)-1,3-dioxolane]
- inhibition at 100 µM ([1]; @100 μM compound): 44%

SMILES: Nc1ncnc2c1ncn2[C@H]1CO[C@@H](COP(=O)(O)OP(=O)(O)OP(=O)(O)O)O1 [14(-)-triphosphate, (−)-triphosphate-cis-2-hydroxymethyl-4-(adenin-9′-yl)-1,3-dioxolane]
- inhibition at 50 µM [1]: 6%

SMILES: Nc1ccn([C@@H]2CO[C@H](COP(=O)(O)OP(=O)(O)OP(=O)(O)O)O2)c(=O)n1 [COMPOUND#22(−), (−)-triphosphate-cis-2-hydroxymethyl-4-(cytosin-1′-yl)-1,3-dioxolane]
- inhibition at 100 µM [2]: 15%

SMILES: Nc1nc(=O)n([C@H]2CO[C@@H](COP(=O)(O)OP(=O)(O)OP(=O)(O)O)O2)cc1F [COMPOUND#23(+), (+)-triphosphate-cis-2-hydroxymethyl-4-(5′-fluorocytosin-1′-yl)-1,3-dioxolane]
- inhibition at 100 µM [2]: 57%

SMILES: Nc1ncn([C@H]2CO[C@@H](COP(=O)(O)OP(=O)(O)OP(=O)(O)O)O2)c(=O)n1 [COMPOUND#24(+), (+)-triphosphate-cis-2-hydroxymethyl-4-(5′-azacytosin-1′-yl)-1,3-dioxolane]
- inhibition at 50 µM [2]: 12%

SMILES: Nc1ncn([C@@H]2CO[C@H](COP(=O)(O)OP(=O)(O)OP(=O)(O)O)O2)c(=O)n1 [COMPOUND#24(−), (−)-triphosphate-cis-2-hydroxymethyl-4-(5′-azacytosin-1′-yl)-1,3-dioxolane]
- inhibition at 100 µM [2]: 8%

SMILES: Cc1cn([C@H]2CO[C@@H](COP(=O)(O)OP(=O)(O)OP(=O)(O)O)O2)c(=O)nc1N [COMPOUND#25(+), (+)-triphosphate-cis-2-hydroxymethyl-4-(5′-methylcytosin-1′-yl)-1,3-dioxolane]
- inhibition at 50 µM [2]: 9%

SMILES: Cc1cn([C@H]2CO[C@@H](COP(=O)(O)OP(=O)(O)OP(=O)(O)O)O2)c(=O)[nH]c1=O [COMPOUND#26(+), (+)-triphosphate-cis-2-hydroxymethyl-4-(N-1′-thiminyl)-1,3-dioxolane]
- inhibition at 100 µM [2]: 47%
